Measured values as given in patent publication US20170348381A1, “FORMULATION” (NovaBiotics Limited, priority 2016, published 2017).

Tests used:
Format in all cases: cell-based
A. fumigatus [1] = assay: Antimicrobial susceptibility testing (CLSI M27-A3/M38-A2, chequerboard), MIC100, Example 2; details: for MIC100 of the antifungal in combination with Novamycin (+): in combination with MIC100 and sub-MIC100 concentrations of Novamycin; for MIC: Aspergillus fumigatus
Protocol: (§1) Antimicrobial susceptibility testing was performed based on CLSI approved standards M27-A3 and M38-A2. The effects of antimicrobial combinations were evaluated using a chequerboard method (Burkhart et al., 2006) in CLSI conditions.
(§2) Table 1. The MIC100 of clinically used antifungals individually (−) and in combination (+) with Novamycin®.
(§3) (−)=MIC100 (μg/mL) of the antifungal alone (+)=MIC100 (μg/mL) of the antifungal in combination with Novamycin®—=Not analysed

C. albicans [2] = assay: as above; details: for MIC100 of the antifungal in combination with Novamycin (+): in combination with MIC100 and sub-MIC100 concentrations of Novamycin; for MIC: Candida albicans
Protocol: as §1, §2, §3

E. dermatitidis = assay: as above; details: for MIC100 of the antifungal in combination with Novamycin (+): in combination with MIC100 and sub-MIC100 concentrations of Novamycin; for MIC: Exophiala dermatitidis
Protocol: as §1, §2, §3

A. fumigatus [3] = assay: Neutral, additive or synergistic effect of combinations of novamycin plus other antifungal agents, Example 3; details: for Antifungal MIC100: antifungal alone; for MIC100 in Combination, AF: antifungal in combination with Novamycin; for Effect: combination of the antifungal with Novamycin
Protocol: as §1
(§4) The neutral, additive or synergistic effect of combinations of novamycin plus other antifungal agents was studied.

C. albicans [4] = assay: as above; details: for Antifungal MIC100: antifungal alone; for MIC100 in Combination, AF: antifungal in combination with Novamycin; for Effect: combination of the antifungal with Novamycin
Protocol: as §1, §4

Structure (SMILES) | MIC100 of the antifungal alone (−) (A. fumigatus [1]; antifungal alone) [µg/mL] | MIC100 of the antifungal in combination with Novamycin (+) (A. fumigatus [1]) [µg/mL] | MIC100 of the antifungal alone (−) (C. albicans [2]; antifungal alone) [µg/mL] | MIC100 of the antifungal in combination with Novamycin (+) (C. albicans [2]) [µg/mL] | MIC100 of the antifungal alone (−) (E. dermatitidis; antifungal alone) [µg/mL] | MIC100 of the antifungal in combination with Novamycin (+) (E. dermatitidis) [µg/mL] | Antifungal MIC100 (A. fumigatus [3]) [µg/mL] | MIC100 in Combination, AF (A. fumigatus [3]) [µg/mL] | Effect (A. fumigatus [3]) | Antifungal MIC100 (C. albicans [4]) [µg/mL] | MIC100 in Combination, AF (C. albicans [4]) [µg/mL] | Effect (C. albicans [4]) | MIC (A. fumigatus [1]; antifungal alone) [µg/mL] | MIC (C. albicans [2]; antifungal alone) [µg/mL] | MIC (E. dermatitidis; antifungal alone) [µg/mL]
C[C@@H]1[C@H](O)[C@@H](C)/C=C/C=C/C=C/C=C/C=C/C=C/C=C/[C@H](O[C@@H]2O[C@H](C)[C@@H](O)[C@H](N)[C@@H]2O)C[C@@H]2O[C@](O)(C[C@@H](O)C[C@@H](O)[C@H](O)CC[C@@H](O)C[C@@H](O)CC(=O)O[C@H]1C)C[C@H](O)[C@H]2C(=O)O [AmB, amphotericin B] | 0.25 | 0.03 | 0.25 | 0.13 | 1 | 0.12 | 0.25 | 0.03 | Additive | 0.5 | 0.05 | Additive | – | – | –
CC[C@H](C)C[C@H](C)CCCCCCCCC(=O)N[C@H]1C[C@@H](O)[C@@H](NCCN)NC(=O)[C@@H]2[C@@H](O)CCN2C(=O)[C@H]([C@H](O)CCN)NC(=O)[C@H]([C@H](O)[C@@H](O)c2ccc(O)cc2)NC(=O)[C@@H]2C[C@@H](O)CN2C(=O)[C@H]([C@@H](C)O)NC1=O [CFN, caspofungin] | – | 0.06 | – | 0.03 | – | 3.94 | 0.06 | 0.04 | Additive | 0.5 | 0.03 | Additive | 0.06 | 0.5 | 31.2
CCC(C)n1ncn(-c2ccc(N3CCN(c4ccc(OCC5COC(Cn6cncn6)(c6ccc(Cl)cc6Cl)O5)cc4)CC3)cc2)c1=O (stereo not drawn) [ITZ, itraconazole] | – | – | – | – | – | 2 | – | – | – | – | – | – | – | – | 4
CC[C@@H]([C@H](C)O)n1ncn(-c2ccc(N3CCN(c4ccc(OC[C@@H]5CO[C@@](Cn6cncn6)(c6ccc(F)cc6F)C5)cc4)CC3)cc2)c1=O [PCZ, pozaconazole] | – | 0.125 | – | 0.06 | – | – | 0.25 | 0.125 | Additive | < 0.03 | < 0.03 | Neutral | 0.25 | 0.13 | –
C[C@@H](c1ncncc1F)[C@](O)(Cn1cncn1)c1ccc(F)cc1F [Voriconazole] | – | – | – | – | – | – | 0.25 | 0.25 | Neutral | – | – | – | – | – | –
